Assay results as given in ChEMBL document CHEMBL1201862, “PubChem BioAssay data set” (2004).
Active and inactive are the calls of the source.

Key:
Fatty acid synthase [1] = biological target: T1, Fatty acid synthase (Homo sapiens, UniProt P49327); assay: FAS thioesterase domain inhibitors, dose response, biochemical, endpoint fluorescence intensity, uHTS hits (AID 624327); type: functional;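 note: fluorescence from hydrolysis of an O-methyl fluorescein acyl ester substrate by the enzyme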
Fatty acid synthase [2] = biological target: T1, Fatty acid synthase; assay: FAS thioesterase domain inhibitors, dose response, biochemical, kinetic fluorescence intensity (AID 624326); type: functional;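 note: rate of fluorescence rise from hydrolysis of a fluorogenic O-methyl fluorescein ester substrate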
[3] = biological target: T2, Zinc finger protein mex-5 (Caenorhabditis elegans, UniProt Q9XUB2); assay: MEX-5/TCR-2 RNA interaction inhibitors, dose response, biochemical, C. elegans, fluorescence polarization (AID 1960)
T2 sequence (Q9XUB2 whole entry): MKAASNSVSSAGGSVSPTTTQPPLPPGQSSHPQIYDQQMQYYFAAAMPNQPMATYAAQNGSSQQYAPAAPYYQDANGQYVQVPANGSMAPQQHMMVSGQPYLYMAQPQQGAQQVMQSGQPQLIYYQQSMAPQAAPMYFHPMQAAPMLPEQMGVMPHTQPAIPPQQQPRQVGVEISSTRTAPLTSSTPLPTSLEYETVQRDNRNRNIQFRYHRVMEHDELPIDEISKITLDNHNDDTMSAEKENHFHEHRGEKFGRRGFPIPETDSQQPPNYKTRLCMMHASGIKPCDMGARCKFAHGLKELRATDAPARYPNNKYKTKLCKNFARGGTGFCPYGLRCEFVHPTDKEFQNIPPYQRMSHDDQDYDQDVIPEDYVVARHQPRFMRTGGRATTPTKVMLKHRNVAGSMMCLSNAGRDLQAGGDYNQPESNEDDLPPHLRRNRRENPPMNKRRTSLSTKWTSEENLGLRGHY

HEK293 [4] = assay: cells; conditions: Homo sapiens
Paired box protein Pax-8 = Paired box protein Pax-8 (Homo sapiens, UniProt Q06710); assay: inhibitors of PAX8-driven TPO luciferase reporter, dose response, RMG-I cells, cherry-pick (AID 687027); type: functional, cell-based;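 note: luciferase reporter driven by Pax8 target thyroperoxidase promoter measured by SteadyGlo luminescence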
Cytochrome P450 2C9 [5] = biological target: T3, Cytochrome P450 2C9 (Homo sapiens, UniProt P11712)
T3 sequence (P11712 whole entry): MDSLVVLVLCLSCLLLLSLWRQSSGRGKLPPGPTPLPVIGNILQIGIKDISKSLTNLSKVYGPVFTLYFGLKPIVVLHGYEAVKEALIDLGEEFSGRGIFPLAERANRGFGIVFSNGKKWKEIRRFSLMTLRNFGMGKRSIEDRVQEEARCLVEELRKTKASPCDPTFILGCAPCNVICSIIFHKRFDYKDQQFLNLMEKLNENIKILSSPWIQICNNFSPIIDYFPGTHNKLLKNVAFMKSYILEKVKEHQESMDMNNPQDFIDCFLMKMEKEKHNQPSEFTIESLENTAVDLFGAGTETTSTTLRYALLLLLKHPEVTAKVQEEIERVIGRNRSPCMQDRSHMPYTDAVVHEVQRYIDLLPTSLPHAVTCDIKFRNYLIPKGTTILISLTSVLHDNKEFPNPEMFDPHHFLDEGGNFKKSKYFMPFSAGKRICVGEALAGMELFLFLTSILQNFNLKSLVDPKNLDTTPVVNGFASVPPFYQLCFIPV

HEK293 [6] = assay: cells; conditions: Homo sapiens; remark: listed apart in the source
[7] = biological target: T4, RNA-binding protein pos-1 (Caenorhabditis elegans, UniProt G5EF15); assay: inhibitors of POS-1/mex-3 RNA binding, dose response, biochemical, fluorescence polarization (AID 1964);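 note: purified POS-1 fused to maltose binding protein made in E. coli; potency of compounds blocking POS-1 binding to fluorescent RNA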
T4 sequence (G5EF15 whole entry): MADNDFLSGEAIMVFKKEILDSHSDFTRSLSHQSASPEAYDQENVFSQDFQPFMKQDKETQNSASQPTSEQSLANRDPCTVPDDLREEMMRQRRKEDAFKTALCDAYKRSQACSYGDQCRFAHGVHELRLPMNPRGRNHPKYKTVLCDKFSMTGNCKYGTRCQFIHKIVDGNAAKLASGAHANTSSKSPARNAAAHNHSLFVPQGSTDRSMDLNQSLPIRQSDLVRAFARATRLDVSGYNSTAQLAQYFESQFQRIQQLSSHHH

[8] = biological target: Induced myeloid leukemia cell differentiation protein Mcl-1 (Homo sapiens, UniProt Q07820); type: functional
Sequence of Induced myeloid leukemia cell differentiation protein Mcl-1 (Q07820 whole entry): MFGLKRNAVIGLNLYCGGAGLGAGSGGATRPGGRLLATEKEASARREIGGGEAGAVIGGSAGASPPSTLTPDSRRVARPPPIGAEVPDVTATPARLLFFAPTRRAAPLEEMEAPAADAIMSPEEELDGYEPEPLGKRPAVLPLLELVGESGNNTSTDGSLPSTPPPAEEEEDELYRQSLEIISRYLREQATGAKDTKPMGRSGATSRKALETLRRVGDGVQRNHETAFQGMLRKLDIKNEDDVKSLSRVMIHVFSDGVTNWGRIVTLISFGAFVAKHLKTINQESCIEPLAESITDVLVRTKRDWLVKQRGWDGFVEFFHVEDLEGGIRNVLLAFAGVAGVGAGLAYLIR

Genome polyprotein = Genome polyprotein (dengue virus type 2, UniProt P29990); assay: Dengue-2 NS5 methyltransferase inhibitors, primary screen, biochemical, confirmation dose response (AID 588689); type: functional
Large T antigen = Large T antigen (Simian virus 40, UniProt P03070); type: functional, Betapolyomavirus macacae;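 note: Confirmatory-stage PubChem screen for compounds that inhibit SV40 T antigen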
Hexokinase HKDC1 = biological target: T5, Hexokinase HKDC1 (Homo sapiens, UniProt Q2TB90); assay: HKDC1 hexokinase inhibitors, dose response, biochemical, W721R variant (AID 504729); type: functional
T5 sequence (Q2TB90 whole entry): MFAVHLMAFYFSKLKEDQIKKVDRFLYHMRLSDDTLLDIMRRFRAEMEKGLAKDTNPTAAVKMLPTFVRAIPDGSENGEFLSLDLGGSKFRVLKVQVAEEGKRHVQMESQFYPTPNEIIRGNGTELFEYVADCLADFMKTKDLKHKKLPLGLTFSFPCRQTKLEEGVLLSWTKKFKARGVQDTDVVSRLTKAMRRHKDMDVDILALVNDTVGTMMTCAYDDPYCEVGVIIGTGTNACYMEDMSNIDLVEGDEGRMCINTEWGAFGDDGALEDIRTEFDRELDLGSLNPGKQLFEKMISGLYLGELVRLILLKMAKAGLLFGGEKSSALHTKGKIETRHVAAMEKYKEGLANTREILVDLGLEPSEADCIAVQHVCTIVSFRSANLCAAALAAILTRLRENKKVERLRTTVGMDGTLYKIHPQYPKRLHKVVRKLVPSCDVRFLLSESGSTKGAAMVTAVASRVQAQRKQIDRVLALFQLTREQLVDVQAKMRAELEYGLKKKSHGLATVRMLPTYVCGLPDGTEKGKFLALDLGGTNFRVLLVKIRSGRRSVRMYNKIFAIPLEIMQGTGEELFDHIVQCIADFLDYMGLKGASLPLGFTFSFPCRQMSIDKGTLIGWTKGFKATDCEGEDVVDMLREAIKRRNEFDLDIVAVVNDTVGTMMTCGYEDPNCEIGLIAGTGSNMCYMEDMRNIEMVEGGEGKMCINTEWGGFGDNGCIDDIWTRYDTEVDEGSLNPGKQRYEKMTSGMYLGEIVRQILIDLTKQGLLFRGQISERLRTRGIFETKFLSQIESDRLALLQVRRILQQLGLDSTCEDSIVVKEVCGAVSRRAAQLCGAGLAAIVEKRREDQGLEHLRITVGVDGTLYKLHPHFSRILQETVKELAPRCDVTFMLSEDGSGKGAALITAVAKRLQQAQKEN

Cytochrome P450 2C9 [9] = biological target: T3, Cytochrome P450 2C9; remark: listed apart in the source
Cytochrome P450 1A2 = biological target: T6, Cytochrome P450 1A2 (Homo sapiens, UniProt P05177);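 note: PubChem cytochrome P450 panel assay, CYP1A2 panel member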
T6 sequence (P05177 whole entry): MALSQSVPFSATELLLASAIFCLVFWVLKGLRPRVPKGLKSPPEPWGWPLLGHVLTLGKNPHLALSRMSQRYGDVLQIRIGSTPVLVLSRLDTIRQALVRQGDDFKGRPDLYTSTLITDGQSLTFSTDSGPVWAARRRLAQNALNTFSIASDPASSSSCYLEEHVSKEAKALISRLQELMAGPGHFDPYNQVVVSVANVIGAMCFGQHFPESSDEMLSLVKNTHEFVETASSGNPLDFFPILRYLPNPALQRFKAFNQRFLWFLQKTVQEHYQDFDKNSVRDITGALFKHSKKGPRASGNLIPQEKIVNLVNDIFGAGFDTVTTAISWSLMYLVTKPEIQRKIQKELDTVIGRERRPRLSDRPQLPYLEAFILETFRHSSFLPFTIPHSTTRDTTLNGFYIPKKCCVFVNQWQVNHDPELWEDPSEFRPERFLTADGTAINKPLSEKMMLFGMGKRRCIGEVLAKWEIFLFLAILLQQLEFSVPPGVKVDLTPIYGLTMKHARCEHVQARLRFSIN

Cytochrome P450 2C19 = Cytochrome P450 2C19 (Homo sapiens, UniProt P33261); assay: Cytochrome panel assay with activity outcomes. Panel member name: p450-cyp2c19 Compounds with AC50 equal or less than 10 uM are considered active; type: functional; conditions: read-out: AC50
Sequence of Cytochrome P450 2C19 (P33261 whole entry): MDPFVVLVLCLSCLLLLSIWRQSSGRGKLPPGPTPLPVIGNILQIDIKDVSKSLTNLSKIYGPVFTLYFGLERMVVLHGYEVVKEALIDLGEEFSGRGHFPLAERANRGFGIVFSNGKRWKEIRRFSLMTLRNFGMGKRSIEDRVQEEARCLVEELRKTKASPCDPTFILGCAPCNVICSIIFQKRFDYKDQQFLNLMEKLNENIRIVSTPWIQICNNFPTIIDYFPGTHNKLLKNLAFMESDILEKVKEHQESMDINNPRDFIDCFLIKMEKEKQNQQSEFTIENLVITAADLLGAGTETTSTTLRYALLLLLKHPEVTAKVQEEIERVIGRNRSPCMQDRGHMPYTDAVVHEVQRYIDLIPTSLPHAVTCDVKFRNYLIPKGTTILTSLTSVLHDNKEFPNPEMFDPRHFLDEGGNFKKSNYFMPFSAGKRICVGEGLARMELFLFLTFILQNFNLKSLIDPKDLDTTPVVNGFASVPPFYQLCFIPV

[10] = biological target: Dual specificity tyrosine-phosphorylation-regulated kinase 1A (Rattus norvegicus, UniProt Q63470); type: biochemical, Homo sapiens
[11] = biological target: FAD-linked sulfhydryl oxidase ALR (Homo sapiens, UniProt P55789); assay: inhibitors of human ALR sulfhydryl oxidase, dose response, biochemical, H2O2 detection, luminescence, cherry-pick (AID 493248)
Sequence of FAD-linked sulfhydryl oxidase ALR (P55789 whole entry): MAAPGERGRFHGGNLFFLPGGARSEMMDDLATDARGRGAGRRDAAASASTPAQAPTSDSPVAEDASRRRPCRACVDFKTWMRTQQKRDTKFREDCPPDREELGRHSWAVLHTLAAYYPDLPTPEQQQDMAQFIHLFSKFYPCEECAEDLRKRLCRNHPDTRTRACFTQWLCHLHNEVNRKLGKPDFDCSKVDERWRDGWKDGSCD

HEK293 [12] = assay: inhibitors of LMP1-driven NF-kB reporter, dose response, cell-based, HEK293, luciferase, cherry-pick (AID 588343); type: functional; conditions: Homo sapiens
[13] = biological target: Mitogen-activated protein kinase 10 (Homo sapiens, UniProt P53779); assay: Dose response biochemical screening assay for inhibitors of c-Jun N-Terminal Kinase 3 (JNK3). [Related pubchem assays: 746 ]
Sequence of Mitogen-activated protein kinase 10 (P53779 whole entry): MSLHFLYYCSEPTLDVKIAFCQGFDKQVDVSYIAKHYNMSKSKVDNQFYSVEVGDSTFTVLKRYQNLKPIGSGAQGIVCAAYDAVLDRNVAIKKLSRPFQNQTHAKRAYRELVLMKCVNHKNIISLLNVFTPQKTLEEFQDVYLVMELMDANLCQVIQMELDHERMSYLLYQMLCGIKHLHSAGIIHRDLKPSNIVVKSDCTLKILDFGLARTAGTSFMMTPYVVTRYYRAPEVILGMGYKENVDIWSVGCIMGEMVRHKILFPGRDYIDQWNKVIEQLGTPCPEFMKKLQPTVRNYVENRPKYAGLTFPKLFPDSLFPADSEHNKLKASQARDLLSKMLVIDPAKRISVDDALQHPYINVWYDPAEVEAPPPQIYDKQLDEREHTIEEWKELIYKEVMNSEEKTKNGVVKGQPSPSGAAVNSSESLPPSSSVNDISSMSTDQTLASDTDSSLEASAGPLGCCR

Cytochrome P450 2D6 = Cytochrome P450 2D6 (Homo sapiens, UniProt P10635);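 note: CYP2D6 member of a cytochrome P450 panel assay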
Sequence of Cytochrome P450 2D6 (P10635 whole entry): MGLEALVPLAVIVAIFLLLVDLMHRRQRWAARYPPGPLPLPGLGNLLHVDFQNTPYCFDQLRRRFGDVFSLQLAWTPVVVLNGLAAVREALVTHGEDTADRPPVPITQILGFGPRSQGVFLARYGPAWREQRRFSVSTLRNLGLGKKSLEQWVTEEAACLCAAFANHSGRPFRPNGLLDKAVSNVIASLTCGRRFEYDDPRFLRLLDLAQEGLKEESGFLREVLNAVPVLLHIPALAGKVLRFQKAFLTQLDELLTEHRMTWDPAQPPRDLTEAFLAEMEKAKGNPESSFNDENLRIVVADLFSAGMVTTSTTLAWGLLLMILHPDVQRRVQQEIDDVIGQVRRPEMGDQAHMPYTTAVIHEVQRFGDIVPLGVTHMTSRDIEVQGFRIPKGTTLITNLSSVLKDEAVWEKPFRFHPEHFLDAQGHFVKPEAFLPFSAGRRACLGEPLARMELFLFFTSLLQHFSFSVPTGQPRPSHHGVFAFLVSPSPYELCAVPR

[14] = biological target: Heat shock protein HSP 90-alpha (Homo sapiens, UniProt P07900); type: functional, organism-based

T1 sequence (P49327 whole entry, the tested form may be a part): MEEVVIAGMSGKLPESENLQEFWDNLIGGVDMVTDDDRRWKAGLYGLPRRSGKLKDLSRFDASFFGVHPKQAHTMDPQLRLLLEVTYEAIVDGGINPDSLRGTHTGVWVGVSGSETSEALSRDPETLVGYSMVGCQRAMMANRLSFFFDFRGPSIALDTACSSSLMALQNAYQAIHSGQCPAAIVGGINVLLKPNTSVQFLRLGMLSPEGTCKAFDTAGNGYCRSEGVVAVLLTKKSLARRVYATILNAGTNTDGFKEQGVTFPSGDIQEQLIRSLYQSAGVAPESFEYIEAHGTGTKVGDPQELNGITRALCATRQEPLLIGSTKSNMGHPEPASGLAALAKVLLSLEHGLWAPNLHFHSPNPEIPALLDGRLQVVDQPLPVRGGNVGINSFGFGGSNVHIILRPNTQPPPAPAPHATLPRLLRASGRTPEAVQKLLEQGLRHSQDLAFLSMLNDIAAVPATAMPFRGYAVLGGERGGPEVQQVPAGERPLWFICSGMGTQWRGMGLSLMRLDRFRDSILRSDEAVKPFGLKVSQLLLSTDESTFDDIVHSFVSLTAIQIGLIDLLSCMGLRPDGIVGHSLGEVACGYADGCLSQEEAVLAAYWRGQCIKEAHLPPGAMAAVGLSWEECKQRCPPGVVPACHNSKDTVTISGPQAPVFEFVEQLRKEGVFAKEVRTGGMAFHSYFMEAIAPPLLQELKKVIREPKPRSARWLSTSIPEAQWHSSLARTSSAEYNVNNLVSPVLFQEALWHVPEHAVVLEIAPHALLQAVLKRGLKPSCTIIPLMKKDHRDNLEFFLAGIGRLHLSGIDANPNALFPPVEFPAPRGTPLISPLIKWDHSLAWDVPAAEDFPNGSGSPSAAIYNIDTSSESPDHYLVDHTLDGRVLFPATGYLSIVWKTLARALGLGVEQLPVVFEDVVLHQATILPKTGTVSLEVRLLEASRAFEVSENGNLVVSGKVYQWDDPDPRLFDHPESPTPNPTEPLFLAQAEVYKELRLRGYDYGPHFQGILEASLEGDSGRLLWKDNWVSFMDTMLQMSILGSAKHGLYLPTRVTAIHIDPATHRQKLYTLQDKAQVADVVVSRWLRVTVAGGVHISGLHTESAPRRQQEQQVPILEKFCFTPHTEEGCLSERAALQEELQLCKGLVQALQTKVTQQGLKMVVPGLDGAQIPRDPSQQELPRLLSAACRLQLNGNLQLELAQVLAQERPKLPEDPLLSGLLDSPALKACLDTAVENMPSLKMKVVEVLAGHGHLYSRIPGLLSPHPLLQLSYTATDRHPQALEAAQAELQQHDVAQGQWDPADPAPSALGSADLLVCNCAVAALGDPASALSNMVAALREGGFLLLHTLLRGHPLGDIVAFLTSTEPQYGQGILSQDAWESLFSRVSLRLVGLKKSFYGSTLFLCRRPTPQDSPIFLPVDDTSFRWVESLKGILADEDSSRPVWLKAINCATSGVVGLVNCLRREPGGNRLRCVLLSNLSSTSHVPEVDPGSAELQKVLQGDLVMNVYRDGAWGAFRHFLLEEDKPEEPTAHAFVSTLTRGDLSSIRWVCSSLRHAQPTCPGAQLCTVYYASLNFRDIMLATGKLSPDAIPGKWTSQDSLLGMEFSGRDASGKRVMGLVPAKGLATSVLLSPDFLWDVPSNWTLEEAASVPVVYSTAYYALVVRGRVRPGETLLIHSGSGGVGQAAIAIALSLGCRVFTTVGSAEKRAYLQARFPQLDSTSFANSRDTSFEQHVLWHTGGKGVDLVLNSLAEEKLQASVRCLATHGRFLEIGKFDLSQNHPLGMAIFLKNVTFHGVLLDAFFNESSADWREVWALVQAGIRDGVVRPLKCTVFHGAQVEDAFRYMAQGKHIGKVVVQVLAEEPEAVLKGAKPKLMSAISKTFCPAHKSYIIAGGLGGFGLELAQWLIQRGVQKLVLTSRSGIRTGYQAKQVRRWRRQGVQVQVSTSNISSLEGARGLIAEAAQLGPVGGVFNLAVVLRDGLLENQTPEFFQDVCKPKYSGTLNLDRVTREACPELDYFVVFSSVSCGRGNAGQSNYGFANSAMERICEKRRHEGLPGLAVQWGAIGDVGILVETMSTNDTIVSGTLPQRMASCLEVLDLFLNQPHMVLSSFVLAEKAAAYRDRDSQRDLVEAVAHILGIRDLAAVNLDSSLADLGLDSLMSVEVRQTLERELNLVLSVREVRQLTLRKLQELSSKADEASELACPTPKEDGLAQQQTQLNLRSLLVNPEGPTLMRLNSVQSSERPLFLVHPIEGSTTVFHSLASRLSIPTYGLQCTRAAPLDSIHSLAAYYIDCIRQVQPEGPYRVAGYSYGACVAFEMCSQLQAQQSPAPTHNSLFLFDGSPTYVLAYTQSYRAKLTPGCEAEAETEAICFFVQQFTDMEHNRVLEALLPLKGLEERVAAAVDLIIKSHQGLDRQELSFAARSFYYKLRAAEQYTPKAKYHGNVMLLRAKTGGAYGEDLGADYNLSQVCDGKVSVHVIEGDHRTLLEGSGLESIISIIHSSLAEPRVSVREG

For `COc1ccc(CNC(=O)/C=C/c2cc([N+](=O)[O-])ccc2OC(F)F)cc1`, the IC50 (Fatty acid synthase [1]) was 1.17 µM (active) and the IC50 (Fatty acid synthase [2]) was 1.37 µM (active).
In the case of `O=[N+]([O-])c1ccc(NC(S)=NCCc2ccccc2)cc1`, the IC50 (Fatty acid synthase [1]) is reported as 24.7 µM (inactive) and the IC50 (Fatty acid synthase [2]) is reported as 15 µM (active).
With `Cn1cc(C2=C(c3ccc(Cl)cc3Cl)C(=O)NC2=O)c2ccccc21` [SB-216763] the EC50 [3] was 21.5 µM (inconclusive), the EC50 (HEK293 [4]) was > 59.6 µM (inactive) and the AC50 (Paired box protein Pax-8) was 4.61 µM (active). The AC50 (Cytochrome P450 2C9 [5]) was 31.6 µM (inconclusive), the EC50 (HEK293 [6]) was > 59.6 µM (inactive) and the EC50 [7] was 26 µM (active).
With `COc1ccc(C2=NN(CN3C(=O)C(=O)c4ccccc43)C(c3cccc([N+](=O)[O-])c3)C2)cc1` (configuration not stated) the IC50 (Fatty acid synthase [1]) was 12.4 µM (active) and the IC50 (Fatty acid synthase [2]) was 13 µM (active).
In the case of `O=C(O)CCC(=O)NCCc1c(/C=C2/C(=O)NC(=S)N(Cc3ccc(F)cc3)C2=O)[nH]c2ccccc12`, the IC50 [8] is reported as 1.42 µM (active), the IC50 (Genome polyprotein) is reported as > 100 µM (active) and the IC50 (Large T antigen) is reported as 55.4 µM (active).
For `CC[C@]1(C(=O)OC)[C@H]2C(=O)N(Cc3ccccc3)C(=O)[C@H]2[C@H]2CN=C(SCc3ccc(C(=O)OC)cc3)N21`, the EC50 (HEK293 [4]) was > 59.6 µM (inactive) and the EC50 (HEK293 [6]) was > 59.6 µM (inactive).
With `CCCc1nc2oc3c(OC)ncnc3c2c2c1COC(C)(C)C2` the IC50 (Hexokinase HKDC1) was 23 µM (inactive).
For `CCn1c(COc2ccccc2)nnc1SCC(=O)Nc1cc(OC)ccc1OC`, the AC50 (Cytochrome P450 2C9 [9]) was “inconclusive” and the AC50 (Cytochrome P450 1A2) was 25.1 µM (inconclusive).
In the case of `COc1ccc(C(=O)N/C(=C\c2ccc([N+](=O)[O-])cc2)C(=O)NC(CCSC)C(=O)O)cc1` (configuration not stated), the IC50 (Fatty acid synthase [1]) is reported as 7.76 µM (active) and the IC50 (Fatty acid synthase [2]) is reported as 5.76 µM (active).
With `C[C@@]12CC[C@@H]3c4ccc(O)cc4CC[C@H]3[C@H]1C[C@@H](O)[C@H]2O` the AC50 (Cytochrome P450 2C19) was 7.94 µM (inconclusive) and the AC50 (Cytochrome P450 2C9 [9]) was “inconclusive”.
For `CC(=O)c1cc(C#N)c(SCc2ccccn2)nc1C`, the IC50 [8] was 5.73 µM (not active).
`CC(=O)Nc1nc(C)c(-c2csc(Nc3ccc(O)cc3)n2)s1` was tested, and the AC50 [10] was 0.988 µM (active), the AC50 [11] was 0.17 µM (active) and the AC50 (HEK293 [12]) was 3.85 µM (active). For the same molecule, the IC50 [13] was > 93.1 µM (not active).
In the case of `CCN(CC)N=Nc1[nH]nc2nc(C)cc(C)c12`, the AC50 (Cytochrome P450 2D6) is reported as 12.6 µM (inconclusive), the AC50 [14] is reported as 2.42 µM (active) and the AC50 (Cytochrome P450 2C9 [5]) is reported as 17.8 µM (inconclusive).
